This assay relates to P. falciparum 3D7 growth, pLDH absorbance. As to the kind of experiment: P. falciparum 3D7 growth inhibition, dose response, strain 3D7 (AID 2305).

Where “and” joins values, the source holds several entries; their conditions need not be identical. Equal values may be shown once.

In the case of `O=c1cc(NCCCNC(c2ccccc2)c2ccc(Cl)c(Cl)c2)[nH]c2ccccc12` (stereo unspecified), the IC50 (usually the concentration that gives 50% inhibition) was 1140 nM.

As to `CC(=Nc1ccc(Cl)c(Cl)c1)N(C)C`, the IC50 was 540 nM. This IC50 is about 2.1-fold lower than that of the compound before.

In turn, `O=C(Nc1ccc(S(=O)(=O)N2CCOCC2)cc1)c1cc(-c2cc(Cl)ccc2O)n[nH]1` displayed an IC50 of 770 nM.

`COc1ccc(NC(=O)/C=C/c2ccccc2Cl)cc1OCCN1CCC(N2CCCCC2)CC1` came in with an IC50 of 900 nM.

For the compound `O=C(NCCCCN1CCC(c2ccc3c(c2OCCN2CCCC2=O)CCCC3)CC1)c1ccc(-c2ccc(C(F)(F)F)cc2)cc1`, the half-maximal inhibitory concentration (IC50) came out at 1520 nM.

Compound `COc1cc(C)nc2ccc(NC(=O)c3ccc(C(=O)Nc4ccc5nc(C)cc(OC)c5c4)cc3)cc12` registered an IC50 of 60 nM. Against the preceding compound, the IC50 is about 25-fold lower.

As to `Cc1nnc2c(NC(=O)NC3CCCC3)cc3cc(-c4ccc(CN5CCN(C)CC5)cc4)ccc3n12`, the half-maximal inhibitory concentration (IC50) was determined as 1020 nM.

Take `COc1ccc2nc(Nc3nc4ccncc4[nH]3)sc2c1`: the half-inhibitory concentration (IC50) was determined as 1130 nM.

As for `COc1ccc(Cl)cc1N1CCN(CCCNC(=O)c2ccc(-c3nc4ccncc4[nH]3)c(Br)c2)CC1`, the IC50 came to 1150 nM.

On to `O=C(Nc1ccc(-c2cccc(-c3nc4ccc(F)cc4[nH]3)c2)cc1)c1cnn2cccnc12`, for which the IC50 stood at 650 nM. This IC50 is about 1.8-fold lower than that of the compound before.

As for `O=C(/C=C/c1ccc(Cl)c(Cl)c1)NCCCCCN1CCC(NC(=O)c2ccc(F)c(F)c2)CC1`, the IC50 was determined as 790 nM.

`O=C(c1cccs1)N(Cc1cccc(-c2ccc(CNC3CCCC3)cc2)c1)C1CCN(Cc2ccccc2)CC1` yielded a half-maximal inhibitory concentration (IC50) of 1130 nM. The IC50 values of the last two compounds are within 1.5-fold of each other.

`Oc1ccc2c(c1CNC1CCCCC1)CCCC2` gave an IC50 of 940 nM.

Take `O=C(NCc1cccc(Cl)c1)c1ccc(CNC2CCN(Cc3ccccc3)CC2)cc1`: the half-inhibitory concentration (IC50) was 880 nM.

Compound `COc1cc(Cc2cnc(N)nc2N)cc(OCCCCCC(N)=O)c1OC` had an IC50 of 1190 nM.

On to `OC(CNCc1ccccc1Oc1ccccc1)c1cc(Br)cs1` (stereo unspecified), for which the 50% inhibitory concentration (IC50) was determined as 1110 nM. This IC50 and that of the compound before are within 1.5-fold of each other.

On to `N#Cc1cccc(C(=O)Nc2ccc(-c3cccc(CN4CCCC4)c3)cc2)c1`, for which the IC50 was determined as 710 nM.

As for `COc1cccc(C2CCN(CCN3CCC(CNC(=O)c4ccc(-c5ccc(C(F)(F)F)cc5)cc4)CC3)CC2)c1`, the IC50 came to 890 nM. The IC50 values of the last two compounds are within 1.5-fold of each other.

Take `CC(C)[C@H](NC(=O)c1ccc(O)c(-c2cccc(C(F)(F)F)c2)c1)C(=O)NC1CCCc2ccccc21` (stereo partly specified): the IC50 worked out at 930 nM. This IC50 and that of the compound before are within 1.5-fold of each other.

`COc1ccc(NC(=O)N2CCCN(CCCCCNC(=O)/C=C/c3ccc(C(F)(F)F)cc3)CC2)cc1Cl` displayed an IC50 of 980 nM.

`Cc1cccc2[nH]c(-c3ccc(-c4ccc(NC(=O)Nc5ccc(Cl)cc5)cc4)cc3)nc12` yielded an IC50 of 100 nM.

Compound `CCCN1CCN(c2ccccc2NS(=O)(=O)c2ccc(C(=O)Nc3ccc(Cl)cc3)cc2)CC1` gave an IC50 of 1140 nM.

`CN1CCC(N(Cc2ccc(-c3cnc(NCc4ccccc4)nc3)cc2)S(=O)(=O)c2ccccc2)CC1` gave an IC50 of 780 nM.

As to `O=C(NCCCN1CCCC1=O)c1cnc(N2CCC(Oc3ccccc3)CC2)c(Cl)c1`, the IC50 amounted to 300 nM. Against the preceding compound, the IC50 is about 2.6-fold lower.

Consider `O=C(Nc1ccc(-c2ccc(-c3nc4ccccc4[nH]3)s2)cc1)c1ccncc1`, for which the IC50 turned out to be 790 nM.

Consider `O=C(Nc1ccc(Br)cc1)N(CCN1CCOCC1)CC(O)COCc1ccc(Cl)c(Cl)c1` (stereo unspecified), for which the IC50 came to 930 nM. The IC50 values of the last two compounds are within 1.5-fold of each other.

`Cc1cc(-c2ccc(NC(=O)N3CCc4cc(Br)c(N5CCN(C)CC5)cc43)cc2)ccc1C#N` came in with an IC50 of 880 nM.

As for `O=C(NC1CCN(CCC[C@]2(c3ccc(Cl)c(Cl)c3)CCCN(C(=O)c3ccccc3)C2)CC1)c1ccc(F)cc1`, the IC50 was found to be 880 nM.

In turn, `NC(=O)c1ccc(-c2ccc3ccnc(N)c3c2)cc1` displayed an IC50 of 420 nM. Against the preceding compound, the IC50 is about 2.1-fold lower.

The compound `Cc1ccc(S(=O)(=O)n2nccc2-c2c(-c3ccc(Cl)cc3)noc2C)cc1` came in with an IC50 of 810 nM.

`O=C(NC1CCCCC1)N(Cc1ccccc1-c1ccc(CNCCc2ccccc2)cc1)C1CCN(Cc2ccccc2)CC1` had an IC50 of 930 nM.

Compound `COc1ccc(CNC(=O)c2cc3c(=O)n4ccccc4nc3n(CCc3ccccc3)c2=N)cc1` displayed a concentration for half-maximal inhibition (IC50) of 330 nM.

With `COc1ccc(CCNC(=O)c2cnc3c(c2)nc(-c2cnc(-c4ccccc4)[nH]2)n3CCc2cnc[nH]2)cc1`, the IC50 was 970 nM. Against the preceding compound, the IC50 is about 2.9-fold higher.

In turn, `Fc1ccc2nc(-c3ccc(-c4cccc(CN5CCCCC5)c4)cc3)[nH]c2c1` yielded an IC50 of 270 nM.

In turn, `Cc1c(C)n(C2CCCC2)c2ncnc(OC3CCN(CC(=O)NCC4CC4)CC3)c12` registered an IC50 of 890 nM.

For `O=C(Nc1cccc(-c2nn3ncccc3c2-c2ccnc(Nc3ccccc3)n2)c1)c1c(F)cccc1F`, the IC50 turned out to be 730 nM.

`O=C(/C=C/c1ccc(Cl)c(Cl)c1)NCC1CCN(Cc2ccc(O)cc2)CC1` returned an IC50 of 690 nM.

For `Cc1cccc2[nH]c(-c3ccc(-c4cccc(CNCc5ccccc5)c4)cc3)nc12`, the IC50 turned out to be 250 nM.

Take `Cc1csc(-c2ccc3[nH]cc(C4=CCN(C)CC4)c3c2)n1`: the half-maximal inhibitory concentration (IC50) was 750 nM.

As for `COc1ccc(Br)cc1C1[C@@H]2C(=O)N(c3ccc(Br)cc3)C(=O)[C@@H]2C2(C(=O)O)CC(OCc3ccccc3)CN12` (stereo partly specified), the IC50 came to 190 nM. Compared with the last compound, the IC50 is about 3.9-fold lower.

Consider `COc1ccc2ncc(F)c(CCN3CCC(NCc4cc(Br)c5c(c4)OCCO5)CC3)c2n1`, for which the IC50 came out at 190 nM. That is a sub-micromolar value.

`Cn1nc(C(F)(F)F)c(-c2ccc(F)cc2)c1NC(=O)Nc1ccc(F)cc1F` had an IC50 of 760 nM.

`COc1cccc(Nc2c(C(N)=O)cnc3ccc(-c4ccc(S(C)=O)cc4)cc23)c1` (stereo unspecified) gave an IC50 of 190 nM. Compared with the last compound, the IC50 is about 4-fold lower.

`COc1ccc2nc(C)cc(Nc3ccc(Oc4ccc(Cl)c5ccccc45)c(Cl)c3)c2c1` yielded an IC50 of 730 nM. This IC50 lies about 3.8-fold higher than the previous one.

Compound `COc1cc(-c2nc(-c3ccccc3)c(-c3ccccc3)[nH]2)ccc1OCCN(C)C` showed an IC50 of 300 nM.

On to `C=CCCCNCC(NCCCNc1cc(=O)c2ccccc2[nH]1)c1cc(Br)cc(Br)c1` (stereo unspecified), for which the IC50 is 890 nM.

As to `CCN(CC)CCN(Cc1ccc(-c2ccc(C(F)(F)F)cc2)cc1)C(=O)Cn1c(CCc2cc(F)c(F)c(F)c2)nc(=O)c2ccccc21`, the IC50 worked out at 830 nM.

Turning to `CC[C@H]1CN2CC[C@H]1C[C@@H]2[C@@H](O)c1ccnc2ccccc12`, the IC50 was 280 nM.

Compound `NCCC(=O)Nc1ccc(-c2cnc3[nH]cc(-c4ccc(C(=O)O)cc4)c3c2)cn1` yielded an IC50 of 840 nM.

The compound `Cc1ccccc1C1CCN(C2CCC(NC(=O)c3cc4cc(Cl)ccc4o3)CC2)CC1` (stereo unspecified) came in with a concentration for half-maximal inhibition (IC50) of 1200 nM.

`Cc1nc2nc(N)nc(N)c2c(C)c1Cc1ccc(O)cc1` returned an IC50 of 240 nM. This IC50 lies about 5-fold lower than the previous one.

`ON=C1CCc2cc(-c3cc(-c4ccc(OC5CCNCC5)cc4)oc3-c3ccncc3)ccc21` displayed an IC50 of 160 nM.

On to `N#Cc1ccc(-c2ccc(OCC(O)CN3CCCN(Cc4cccc(O)c4Cl)CC3)cc2)cc1` (stereo unspecified), for which the IC50 stood at 690 nM.

As to `Cc1nnsc1C(=O)Nc1cccc(-c2csc(-c3nc4ccccc4[nH]3)c2)c1`, the IC50 is 350 nM.

With `OCC1CCN(Cc2ccc(-c3cccc(-c4nc5ccccc5[nH]4)c3)cc2)CC1`, the half-maximal inhibitory concentration (IC50) came to 810 nM.

Consider `O=C(/C=C/c1ccccc1O)NC1CCC(CN2CCC(c3c[nH]c4ccccc34)CC2)CC1` (stereo unspecified), for which the IC50 is 760 nM and 460 nM.

In turn, `O=C(NCC1CCN(Cc2ccc3c(c2)OCCO3)C1)c1cc(-c2ccccc2F)cs1` (stereo unspecified) registered an IC50 of 1020 nM.

In turn, `O=C(O)c1ccc(OCOCOc2ccc(C(=O)O)c(O)c2)cc1O` came in with an IC50 of 190 nM.

`O=C(NCCCc1ccccc1)c1ccc(O)c(-c2cc(Cl)cc(Cl)c2)c1` came in with a half-maximal inhibitory concentration (IC50) of 570 nM.

`O=[N+]([O-])c1ccc(C=NNc2nc3ccccc3[nH]2)cc1`: the 50% inhibitory concentration (IC50) came out at 280 nM.

For the compound `CCCCc1cc(NCc2ccncc2)nc(Nc2cccc(OC)c2)n1`, the IC50 was 740 nM.

(Values after PubChem BioAssay AID2305 (GlaxoSmithKline (GSK), 2010).)
